Converted amounts (≈) assume the structure as drawn.
Tests used:
[1] = test system: HIV; assay: inhibition of HIV-induced cytopathic effect in MT-4 cells (MTT method); assay type: cell-based; conditions: for EC50: Human immunodeficiency virus 1, MT4, HIV-infected MT-4 cells, 1000 CCID50, 4 or 5 day incubation at 37° C., MTT method, read-out: ED50: Effective concentration for the inhibition of the proliferation of HIV by 50%; for S.I.: Selectivity index (CD50/ED50): ratio CD50/ED50, MT-4 cells
Method: The anti-HIV assays were based on the inhibition of the virus-induced cytopathic effect in MT-4 cells as described in J. Virol. Methods, 16, 171 (1987). Briefly, MT-4 cells were suspended in culture medium at 2.5×10^5 cells/ml and infected with 1000 CCID50 (50% cell culture infective dose) of HIV. Immediately, after virus infection, 100 μl of the cell suspension was brought into each well of a flat-bottomedmicrotiter tray containing various concentrations of the test compounds. After a 4 or 5 day incubation at 37° C., the number of viable cells was determined by the 3-(4,5-dimethylthiazol-2-yl)-2,5-diphenyltetrazoliumbromide (MTT) method, as disclosed in J. Virol. Methods, 20, 309 (1988).
ED50 : Effective concentration for the inhibition of the
proliferation of HIV by 50%

[2] = cytotoxicity: viability of mock-infected MT-4 host cells (MTT method); assay type: cell-based; conditions: human, mt-4 cells, read-out: CD50: Cytotoxic concentration that causes death of cells by 50%
Method: The cytotoxicity of the compounds of the present invention was assessed in parallel with their antiviral activity. It was based on the viability of mock-infected host cells as determined by the MTT methods (se J. Virol. Methods, 20, 309 (1988)).
CD50 : Cytotoxic concentration that causes death of cells by 50%

Row | Compound | EC50 [1] [µg/mL] | S.I.: Selectivity index (CD50/ED50) [1] | CC50 [2] [µg/mL]
1 | Cc1cc(C)cc(C(=O)c2c(C(C)C)c(=O)[nH]c(=O)n2C/C=C/CO)c1 [Example 76, 1-(4-hydroxy-trans-2-butenyl)-5-isopropyl-6-(3,5-dimethylbenzoyl)-2,4-pyrimidinedione] | < 0.025 | > 1,679 | 42 (≈ 118 µM)
2 | CCc1c(Sc2cc(C)cc(C)c2)n(CC=CC(=O)O)c(=O)[nH]c1=O [Example 77, 1-(carboxyallyl)-5-ethyl-6-(3,5-dimethylphenylthio)-2,4-pyrimidinedione] | < 0.902 | > 75 | 68.3 (≈ 190 µM)
3 | CCc1c(Sc2cc(C)cc(C)c2)n(C/C=C/CO)c(=O)[nH]c1=O [Example 78, 1-(4-hydroxy-trans-2-butenyl)-5-ethyl-6-(3,5-dimethylphenylthio)-2,4-pyrimidinedione] | < 0.97 | > 29 | 29 (≈ 83.6 µM)
4 | CCc1c(C(=O)c2cc(C)cc(C)c2)n(C/C=C/CN=[N+]=[N-])c(=O)[nH]c1=O [Example 79, 1-(4-azido-trans-2-butenyl)-5-ethyl-6-(3,5-dimethylbenzoyl)-2,4-pyrimidinedione] | < 0.009 | > 911 | 8.2 (≈ 22.3 µM)
5 | CCc1c(C(=O)c2cc(C)cc(C)c2)n(C/C=C/COC(C)=O)c(=O)[nH]c1=O [Example 80, 1-(4-acetoxy-trans-2-butenyl)-5-ethyl-6-(3,5-dimethylbenzoyl)-2,4-pyrimidinedione] | < 0.033 | > 1,345 | 44.4 (≈ 115 µM)
6 | CCc1c(C(=O)c2cc(C)cc(C)c2)n(C/C=C/COC)c(=O)[nH]c1=O [Example 82, 1-(4-methoxy-trans-2-butenyl)-5-ethyl-6-(3,5-dimethylbenzoyl)-2,4-pyrimidinedione] | < 0.32 | > 134 | 43.1 (≈ 121 µM)
7 | CCc1c(Oc2cc(C)cc(C)c2)n(C/C=C/CO)c(=O)[nH]c1=O [Example 83, 1-(4-hydroxy-trans-2-butenyl)-5-ethyl-6-(3,5-dimethylphenoxy)-2,4-pyrimidinedione] | < 0.81 | > 31 | 25.5 (≈ 77.2 µM)
8 | CCc1c(C(=O)c2cc(C)cc(C)c2)n(C/C=C/CO)c(=O)[nH]c1=O [Example 84] | < 0.009 | > 6,160 | 55.4 (≈ 162 µM)
9 | CCOCn1c(Cc2cc(C)cc(C)c2)c(CC)c(=O)[nH]c1=O [Ref. 1, 1ethoxymethyl-5-ethyl-6-(3,5-dimethylbenzyl)-2,4-pyrimidinedione, reference compound] | < 0.009 | > 4,962 | 44.7 (≈ 141 µM)
10 | CCc1c(Sc2cc(C)cc(C)c2)n(COCc2ccccc2)c(=O)[nH]c1=O [Ref. 2, 1benzyloxymethyl-5-ethyl-6-(3,5-dimethylphenylthio)-2,4-pyrimidinedione, reference compound] | < 0.009 | > 672 | 6.05 (≈ 15.3 µM)
